According to US20210261495A1, “COMPOSITIONS AND METHODS OF USING ITACONIC ACID DERIVATIVES” (ERGON PHARMACEUTICALS, LLC, priority 2018, published 2021):

Each compound was assayed on C6-IRG1-9 rat glioma cells (assay: C6-IRG1-9 rat glioma cell proliferation, CyQuant). Details: various concentrations, 48 hrs.
Format: cell-based
Method: Tumor Cell Proliferation Assay. This assay was used to assess the anti-tumor properties of a therapeutic agent in vitro. In a typical proliferation assay, cells were cultured to near confluency in the appropriate media. Subsequently, the cells were trypsinized and plated onto 96-well plates at 2,000 or 5,000 cell per well. The cells were cultured for 48 to 96 hours in the presence or absence of the therapeutic agent. Cell proliferation was then determined using spectrophotometry (MTT assay, BrdU assay) or fluorimetry (Cyquant assay).
Inhibition of C6-IRG1-9 Rat Glioma cell proliferation. C6-IRG1-9 cells are rat C6 glioma cells that have been transfected to overexpress IRG1. Overexpression of IRG1 is maintained by culturing the cells in DMEM media containing 0.55 μg/mL puromycin. For the proliferation assays, the cells were plated onto a 96-well plate at a density of 2,000 cells/well. The cells were allowed to adhere overnight; they were subsequently treated with various concentrations of compounds of Formula (2) for 48 hrs. At the end of the incubation period, the number of cells is assessed using the CyQuant Cell Proliferation kit (Thermo Fisher) according to the manufacturer's instructions. The results, shown in FIG. 3, indicate that compounds of Formula (2) are able to reduce or abrogate growth of C6-IRG1-9 cells. In FIG. 3, cell proliferation is expressed as % Untreated Control, defined as: […]
where t is the number of cells present in a treated well at the end of the incubation period, c is the number of cells present in an untreated well at the end of the incubation period, and s is the initial number of cells in the wells prior to initiation of treatment.
O=C(O)CC(=Cc1ccccc1)C(=O)O [(4), 2-(phenylmethylidene)butanedioic acid] was tested, and the “proliferation of C6-IRG1-9 rat glioma cells” value (“proliferation” below) was “inhibition of proliferation”.
For CC(C)=C(CC(=O)O)C(=O)O [(3), 2-(propan-2-ylidene)butanedioic acid], the “proliferation” value was “inhibition of proliferation”.
For C=CCC(C(=O)O)/C(=C/c1ccc(F)cc1)C(=O)O (stereo not shown) [(7), 2-[(4-flurophenyl)methylidene]-3-(prop-2-ene-1-yl)butanedioic acid], the “proliferation” value was “inhibition of proliferation”.
In the case of O=C(O)CC(=Cc1ccc(F)cc1)C(=O)O [Compound (5), 2-[(4-fluorophenyl)methylidene]butanedioic acid], the “proliferation” value is reported as “inhibition of proliferation”.
